Assays:
Type in all cases: cell-based
[1] = tested on: HCC827-YVMA cells (human ERBB2 exon20 insertion mutant A775_G776ins YVMA); test: Cell growth inhibition (CellTiter-Glo, 3 days) in HCC827-YVMA; settings: 72 h, 3 days after administration
In short: (§1)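 HCC827 cells lentivirally transduced with codon-optimized ASV or YVMA insertion mutants were seeded at 5000 cells/well in RPMI with 10% FBS and incubated overnight. Compound was added at various concentrations from a 10× stock in medium, with 3 days' incubation. Viability read by CellTiter-Glo luminescence.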

[2] = tested on: HCC827-SVD cells (human EGFR exon 20 insertion mutant D770_N771 insSVD); test: Cell growth inhibition (CellTiter-Glo, 3 days) in HCC827-SVD; settings: 72 h, 3 days after administration
In short: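 HCC827 cells carrying lentiviral codon-optimized EGFR D770_N771 insSVD, with endogenous EGFR knocked out by CRISPR (single clone), seeded at 5000 cells/well in RPMI with 10% FBS. Viability read by CellTiter-Glo luminescence.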

[3] = tested on: HCC827-ASV cells (human EGFR exon 20 insertion mutant A769_D770insASV); test: Cell growth inhibition (CellTiter-Glo, 3 days) in HCC827-ASV; settings: 72 h, 3 days after administration
In short: as §1

A431 cells = test: Cell growth inhibition (CellTiter-Glo, 3 days) in A431; settings: Homo sapiens, A-431, 72 h, 3 days after administration
In short: (§2)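 Growth inhibition was scored by CellTiter-Glo luminescence after 3-day compound exposure at various concentrations. Cells were plated at 5000/well the day before treatment: A431 in DMEM and HCC827 in RPMI, each with 10% FBS.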

HCC827 cells = test: Cell growth inhibition (CellTiter-Glo, 3 days) in HCC827; settings: Homo sapiens, 72 h, 3 days after administration
In short: as §2

GI50 [1] | GI50 [2] | GI50 [3] | GI50 (A431 cells) | GI50 (HCC827 cells) | SMILES
100 to 300 nM | 60 to 100 nM | 100 to 300 nM | ≥ 1000 nM | 300 to 600 nM | C=CC(=O)N1CCC(Nc2cc3c(Nc4ccc(Oc5ccnc(N6CCC(C)(O)CC6)c5)cc4F)ncnc3cc2OC)CC1 [Example 128, 1-(4-((4-((2-fluoro-4-((2-(4-hydroxy-4-methylpiperidin-1-yl)pyridin-4-yl)oxy)phenyl)amino)-7-methoxyquinazolin-6-yl)amino)piperidin-1-yl)prop-2-en-1-one]
60 to 100 nM | 60 to 100 nM | 30 to 60 nM | ≥ 1000 nM | 300 to 600 nM | C=CC(=O)N1CCC(Nc2cc3c(Nc4ccc(Oc5ccnc(N6CCC(C)(OC)CC6)c5)cc4F)ncnc3cc2OC)CC1 [Example 129, 1-(4-((4-((2-fluoro-4-((2-(4-methoxy-4-methylpiperidin-1-yl)pyridin-4-yl)oxy)phenyl)amino)-7-methoxyquinazolin-6-yl)amino)piperidin-1-yl)prop-2-en-1-one]
30 to 60 nM | 30 to 60 nM | 30 to 60 nM | 300 to 600 nM | 100 to 300 nM | C=CC(=O)N1CCC(Nc2cc3c(Nc4ccc(Oc5ccnc(N6CC7CCC(C6)O7)c5)cc4F)ncnc3cc2OC)CC1 [Example 130, 1-(4-((4-((4-((2-(8-oxa-3-azabicyclo[3.2.1]octan-3-yl)pyridin-4-yl)oxy)-2-fluorophenyl)amino)-7-methoxyquinazolin-6-yl)amino)piperidin-1-yl)prop-2-en-1-one]
60 to 100 nM | 60 to 100 nM | 30 to 60 nM | ≥ 1000 nM | 600 to 1000 nM | C=CC(=O)N1CCC(Nc2cc3c(Nc4ccc(Oc5ccnc(N6C[C@@H]7C[C@H]6CO7)c5)cc4F)ncnc3cc2OC)CC1 [Example 131, 1-(4-((4-((4-((2-((1S,4S)-2-oxa-5-azabicyclo[2.2.1]heptan-5-yl)pyridin-4-yl)oxy)-2-fluorophenyl)amino)-7-methoxyquinazolin-6-yl)amino)piperidin-1-yl)prop-2-en-1-one]
< 30 nM | < 30 nM | < 30 nM | 600 to 1000 nM | 100 to 300 nM | C=CC(=O)N1CCC(Nc2cc3c(Nc4ccc(Oc5ccnc(N6CCO[C@@H](C)C6)c5)cc4F)ncnc3cc2OC)CC1 [Example 132, (S)-1-(4-((4-((2-fluoro-4-((2-(2-methylmorpholino)pyridin-4-yl)oxy)phenyl)amino)-7-methoxyquinazolin-6-yl)amino)piperidin-1-yl)prop-2-en-1-one]
< 30 nM | < 30 nM | < 30 nM | 600 to 1000 nM | 100 to 300 nM | C=CC(=O)N1CCC(Nc2cc3c(Nc4ccc(Oc5ccnc(N6CCO[C@H](C)C6)c5)cc4F)ncnc3cc2OC)CC1 [Example 133, (R)-1-(4-((4-((2-fluoro-4-((2-(2-methylmorpholino)pyridin-4-yl)oxy)phenyl)amino)-7-methoxyquinazolin-6-yl)amino)piperidin-1-yl)prop-2-en-1-one]
30 to 60 nM | 30 to 60 nM | < 30 nM | 600 to 1000 nM | 100 to 300 nM | C=CC(=O)N1CCC(Nc2cc3c(Nc4ccc(Oc5ccnc(N6C[C@H]7C[C@@H]6CO7)c5)cc4F)ncnc3cc2OC)CC1 [Example 134, 1-(4-((4-((4-((2-((1R,4R)-2-oxa-5-azabicyclo[2.2.1]heptan-5-yl)pyridin-4-yl)oxy)-2-fluorophenyl)amino)-7-methoxyquinazolin-6-yl)amino)piperidin-1-yl)prop-2-en-1-one]
30 to 60 nM | 60 to 100 nM | < 30 nM | ≥ 1000 nM | 300 to 600 nM | C=CC(=O)N1CCC(Nc2cc3c(Nc4ccc(Oc5ccnc(N6CCOC[C@@H]6C)c5)cc4F)ncnc3cc2OC)CC1 [Example 135, (S)-1-(4-((4-((2-fluoro-4-((2-(3-methylmorpholino)pyridin-4-yl)oxy)phenyl)amino)-7-methoxyquinazolin-6-yl)amino)piperidin-1-yl)prop-2-en-1-one]
300 to 600 nM | 100 to 300 nM | 100 to 300 nM | ≥ 1000 nM | ≥ 1000 nM | C=CC(=O)N1CCC(Nc2cc3c(Nc4ccc(Oc5ccnc(N6CCOC[C@H]6C)c5)cc4F)ncnc3cc2OC)CC1 [Example 137, (R)-1-(4-((4-((2-fluoro-4-((2-(3-methylmorpholino)pyridin-4-yl)oxy)phenyl)amino)-7-methoxyquinazolin-6-yl)amino)piperidin-1-yl)prop-2-en-1-one]
< 30 nM | < 30 nM | < 30 nM | ≥ 1000 nM | 100 to 300 nM | C=CC(=O)N1CCC(Nc2cc3c(Nc4ccc(Oc5ccnc(N6CCOC(C)(C)C6)c5)cc4F)ncnc3cc2OC)CC1 [Example 138, 1-(4-((4-((4-((2-(2,2-dimethylmorpholino)pyridin-4-yl)oxy)-2-fluorophenyl)amino)-7-methoxyquinazolin-6-yl)amino)piperidin-1-yl)prop-2-en-1-one]
100 to 300 nM | 100 to 300 nM | 60 to 100 nM | 300 to 600 nM | 100 to 300 nM | C=CC(=O)N1CCC(Nc2cc3c(Nc4ccc(Oc5ccnc(N6CC(O)C6)c5)cc4F)ncnc3cc2OC)CC1 [Example 139, 1-(4-((4-((2-fluoro-4-((2-(3-hydroxyazetidin-1-yl)pyridin-4-yl)oxy)phenyl)amino)-7-methoxyquinazolin-6-yl)amino)piperidin-1-yl)prop-2-en-1-one]
300 to 600 nM | 100 to 300 nM | 100 to 300 nM | 600 to 1000 nM | 600 to 1000 nM | C=CC(=O)N1CCC(Nc2cc3c(Nc4ccc(Oc5ccnc(N6CC(CO)C6)c5)cc4F)ncnc3cc2OC)CC1 [Example 140, 1-(4-((4-((2-fluoro-4-((2-(3-(hydroxymethyl)azetidin-1-yl)pyridin-4-yl)oxy)phenyl)amino)-7-methoxyquinazolin-6-yl)amino)piperidin-1-yl)prop-2-en-1-one]
30 to 60 nM | 30 to 60 nM | < 30 nM | ≥ 1000 nM | 100 to 300 nM | C=CC(=O)N1CCC(Nc2cc3c(Nc4ccc(Oc5ccnc(N6CC(C#N)C6)c5)cc4F)ncnc3cc2OC)CC1 [Example 141, 1-(4-(4-((6-((1-acryloylpiperidin-4-yl)amino)-7-methoxyquinazolin-4-yl)amino)-3-fluorophenoxy)pyridin-2-yl)azetidine-3-carbonitrile]
< 30 nM | < 30 nM | < 30 nM | ≥ 1000 nM | 100 to 300 nM | C=CC(=O)N1CCC(Nc2cc3c(Nc4ccc(Oc5ccnc(N6CC(COC)C6)c5)cc4F)ncnc3cc2OC)CC1 [Example 142, 1-(4-((4-((2-fluoro-4-((2-(3-(methoxymethyl)azetidin-1-yl)pyridin-4-yl)oxy)phenyl)amino)-7-methoxyquinazolin-6-yl)amino)piperidin-1-yl)prop-2-en-1-one]
300 to 600 nM | 300 to 600 nM | 300 to 600 nM | ≥ 1000 nM | ≥ 1000 nM | C=CC(=O)N1CCC(Nc2cc3c(Nc4ccc(Oc5ccnc(N6CC(S(C)(=O)=O)C6)c5)cc4F)ncnc3cc2OC)CC1 [Example 143, 1-(4-((4-((2-fluoro-4-((2-(3-(methylsulfonyl)azetidin-1-yl)pyridin-4-yl)oxy)phenyl)amino)-7-methoxyquinazolin-6-yl)amino)piperidin-1-yl)prop-2-en-1-one]
≥ 1000 nM | 600 to 1000 nM | 600 to 1000 nM | ≥ 1000 nM | ≥ 1000 nM | C=CC(=O)N1CCC(Nc2cc3c(Nc4ccc(Oc5ccnc(N6CC(C(N)=O)C6)c5)cc4F)ncnc3cc2OC)CC1 [Example 144, 1-(4-(4-((6-((1-acryloylpiperidin-4-yl)amino)-7-methoxyquinazolin-4-yl)amino)-3-fluorophenoxy)pyridin-2-yl)azetidine-3-carboxamide]
≥ 1000 nM | ≥ 1000 nM | ≥ 1000 nM | ≥ 1000 nM | ≥ 1000 nM | C=CC(=O)N1CCC(Nc2cc3c(Nc4ccc(Oc5ccnc(N6CC(NC(C)=O)C6)c5)cc4F)ncnc3cc2OC)CC1 [Example 145, N-(1-(4-(4-((6-((1-acryloylpiperidin-4-yl)amino)-7-methoxyquinazolin-4-yl)amino)-3-fluorophenoxy)pyridin-2-yl)azetidin-3-yl)acetamide]
100 to 300 nM | 60 to 100 nM | 60 to 100 nM | ≥ 1000 nM | 600 to 1000 nM | C=CC(=O)N1CCC(Nc2cc3c(Nc4ccc(Oc5ccnc(N6CC(C(C)(C)O)C6)c5)cc4F)ncnc3cc2OC)CC1 [Example 146, 1-(4-((4-((2-fluoro-4-((2-(3-(2-hydroxypropan-2-yl)azetidin-1-yl)pyridin-4-yl)oxy)phenyl)amino)-7-methoxyquinazolin-6-yl)amino)piperidin-1-yl)prop-2-en-1-one]

SMILES | GI50 [1] | GI50 [2] | GI50 [3] | GI50 (A431 cells) | GI50 (HCC827 cells)
C=CC(=O)N1CCC(Nc2cc3c(Nc4ccc(Oc5ccnc(N6C7CCC6COC7)c5)cc4F)ncnc3cc2OC)CC1 [Example 136, 1-(4-((4-((4-((2-(3-oxa-8-azabicyclo[3.2.1]octan-8-yl)pyridin-4-yl)oxy)-2-fluorophenyl)amino)-7-methoxyquinazolin-6-yl)amino)piperidin-1-yl)prop-2-en-1-one] | 30 to 60 nM | 30 to 60 nM | 30 to 60 nM | 600 to 1000 nM | 300 to 600 nM

Reference: patent US20240398805A1, “QUINAZOLINE DERIVED COMPOUNDS AS EGFR INHIBITORS AND THEIR USES THEREOF” (ACCUTAR BIOTECHNOLOGY INC., priority 2021, published 2024)
